Reference: PMC5429621 (Scientific Reports, 2017)

How the values were obtained:
[1] = target: P2X7 receptor (P2X7R); details: read-out: ATP EC50, physiological concentrations of calcium and magnesium; cited from earlier work
[2] = target: T1, P2X7 73–79 deletion mutant (hP2X7-2Nβ background) (Homo sapiens, UniProt Q99572, DEL73-79/I21V/M24R/N16P/N25R/Q22R/R20V/S23N/T19I/Y26L); assay: two-electrode voltage clamp, Xenopus oocytes; format: cell-based
T1 construct: expressed in transfected cells; host or cells: Xenopus laevis oocytes (cRNA injected)
T1 sequence (Q99572 with tags, fused parts or gaps N16P/T19I/R20V/I21V/Q22R/S23N/M24R/N25R/Y26L/DEL73-79): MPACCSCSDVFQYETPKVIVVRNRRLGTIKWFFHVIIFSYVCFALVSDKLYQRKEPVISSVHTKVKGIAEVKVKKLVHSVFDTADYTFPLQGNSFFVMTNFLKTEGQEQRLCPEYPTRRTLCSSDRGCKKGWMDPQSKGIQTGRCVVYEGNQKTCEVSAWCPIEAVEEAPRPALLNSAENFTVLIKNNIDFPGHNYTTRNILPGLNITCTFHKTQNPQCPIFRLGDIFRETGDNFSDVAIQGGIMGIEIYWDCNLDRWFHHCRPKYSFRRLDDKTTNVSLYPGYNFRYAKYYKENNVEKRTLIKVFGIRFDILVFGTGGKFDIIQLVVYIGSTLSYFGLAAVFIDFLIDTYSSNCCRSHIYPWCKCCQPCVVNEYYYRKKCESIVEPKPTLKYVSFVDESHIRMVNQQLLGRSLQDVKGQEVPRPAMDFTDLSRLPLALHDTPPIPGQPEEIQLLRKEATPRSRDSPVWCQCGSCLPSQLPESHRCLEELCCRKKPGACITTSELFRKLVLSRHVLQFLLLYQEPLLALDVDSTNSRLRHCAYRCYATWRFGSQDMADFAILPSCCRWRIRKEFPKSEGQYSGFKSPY

[3] = target: T2, hP2X7-2Nβ/P2X1 chimera 81–94 (Homo sapiens, UniProt Q99572, F88W/H85P/I21V/K81P/K82G/M24R/N16P/N25R/Q22R/R20V/S23N/S86Q/T19I/T90V/T94V/V84G/Y26L); assay: two-electrode voltage clamp, Xenopus oocytes; format: cell-based; details: 81–94 chimera
T2 construct: expressed in transfected cells; host or cells: Xenopus laevis oocytes (cRNA injected)
T2 sequence (Q99572 1-595 N16P/T19I/R20V/I21V/Q22R/S23N/M24R/N25R/Y26L/K81P/K82G/V84G/H85P/S86Q/F88W/T90V/T94V): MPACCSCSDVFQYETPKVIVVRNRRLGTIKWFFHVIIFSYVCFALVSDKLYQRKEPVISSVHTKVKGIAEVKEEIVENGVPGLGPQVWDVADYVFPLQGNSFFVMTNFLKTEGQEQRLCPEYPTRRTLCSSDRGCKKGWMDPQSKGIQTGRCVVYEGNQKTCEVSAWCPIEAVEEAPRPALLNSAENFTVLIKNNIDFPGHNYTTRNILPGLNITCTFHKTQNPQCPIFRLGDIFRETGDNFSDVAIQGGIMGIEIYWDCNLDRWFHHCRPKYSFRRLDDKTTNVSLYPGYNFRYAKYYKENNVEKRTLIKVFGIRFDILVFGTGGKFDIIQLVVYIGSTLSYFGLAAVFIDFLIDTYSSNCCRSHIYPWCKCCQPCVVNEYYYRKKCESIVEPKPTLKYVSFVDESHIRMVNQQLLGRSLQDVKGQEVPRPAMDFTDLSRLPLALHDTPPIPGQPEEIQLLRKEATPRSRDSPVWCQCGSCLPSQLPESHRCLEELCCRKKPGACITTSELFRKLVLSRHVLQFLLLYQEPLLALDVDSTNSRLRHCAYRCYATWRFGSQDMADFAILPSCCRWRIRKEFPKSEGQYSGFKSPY
Text: The hP2X1R was a gift from Dr Lin-Hua Jiang (University of Leeds, UK) and the hP2X1R cDNA has been described previously. Chimeras were generated by megaprimer-mediated domain swapping. In addition to chimeras, point mutations, deletions and insertions were made using the QuikChange (Stratagene) or Q5 (New England Bioscience) mutagenesis kits. The production of the correct mutations and absence of coding errors was verified by DNA sequencing (Automated ABI Sequencing Service, University of Leicester, UK).
P2XR constructs were transcribed to produce sense-strand cRNA (mMessage mMachine, Ambion, Austin, TX). Manually defoliculated stage V Xenopus laevis oocytes were injected with 50 nl (50 ng) of cRNA using an Inject + Matic microinjector (J.A. Gaby, InjectMatic, Geneva, Switzerland) and stored at 16 °C in ND96 buffer (in mM, NaCl 96, KCl 2, CaCl2 1.8, MgCl2 1, sodium pyruvate 5, HEPES 5 (pH 7.6) supplemented with 50 µg/ml gentamycin and 50 µg/ml tetracycline). For electrophysiological recordings (3–7 days post-injection) oocytes were bathed in divalent free ND96 buffer (in mM, NaCl 96, KCl 2, sodium pyruvate 5, HEPES 5 and 0.1 flufenamic acid, pH 7.6).
ATP (sodium salt, Sigma) was applied via a U-tube perfusion system for 3 s at 3–5 minute intervals to allow reproducible responses to be recorded. […] To standardize for any change in ATP sensitivity at mutant receptors antagonists were co-applied with an EC90 concentration of ATP.
Concentration response curves were normalized to the maximal response and fitted with the Hill equation (variable slope) with GraphPad Prism 6 (Graphpad software, San Diego, CA). […] Individual concentration response curves were generated for individual experiments and statistical analysis was carried out on the data generated. In the figures the inhibition curves are fitted to the mean normalized data. Any significant differences were calculated by one-way analysis of variance, followed by Bonferroni’s test (using GraphPad Prism 6). Data are shown as mean ± SEM.

[4] = tested on: tumour growth; parameters: method as in PMID 22505653; details: cited from earlier work
[5] = tested on: other P2XR subtypes; details: cited from earlier work

Question: For `Nc1ncnc2c1ncn2[C@@H]1O[C@H](COP(=O)(O)OP(=O)(O)OP(=O)(O)O)[C@@H](O)[C@H]1O` [ATP], which EC50 [1] is on record?
Answer: 300 to 1000 µM

Question: And the “increase in ATP sensitivity” value ([2]; 73–79 del, relative to P2X7-2Nβ)?
Answer: 2–3 fold

Question: And the Peak amplitude ([2]; 73–79 delete, maximal ATP)?
Answer: 2.05 ± 0.23 μA

Question: What about the Peak amplitude ([3]; maximal ATP) of the same compound?
Answer: 0.76 ± 0.13 μA

Question: Which results are given for `Cl.Cl.O=C(CC12CC3CC(CC(C3)C1)C2)Nc1cccc2nc(NCCNCCO)ccc12` [AZ10606120, N-[2-[[2-[(2-Hydroxyethyl)amino]ethyl]amino]-5-quinolinyl]-2-tricyclo[3.3.1.13,7]dec-1-ylacetamide dihydrochloride]?
Answer: effect of AZ10606120 treatment in animal studies (tumour) [4]: reduced tumour growth; effect at other P2XR subtypes [5]: little or no effect; peak current to ATP, % of the control response ([3]; in the presence of 3 µM AZ10606120): 53.6 ± 2.6%
